The test system of assay [1] is rat hepatic microsomal PTPases. Put plainly: Inhibition of tri-phosphorylated insulin receptor dodecaphosphopeptide dephosphorylation by rat hepatic PTPases (malachite green). The class given is biochemical. The conditions noted are these: rat liver microsomal fraction; for % Change from Control: PTPase activity, compound at 50 µM; for IC50: % Change from Control.
In a further assay the target is T1, Human recombinant PTP1B (Homo sapiens, UniProt P18031).
T1 construct: made in house
T1 sequence (P18031 1-435): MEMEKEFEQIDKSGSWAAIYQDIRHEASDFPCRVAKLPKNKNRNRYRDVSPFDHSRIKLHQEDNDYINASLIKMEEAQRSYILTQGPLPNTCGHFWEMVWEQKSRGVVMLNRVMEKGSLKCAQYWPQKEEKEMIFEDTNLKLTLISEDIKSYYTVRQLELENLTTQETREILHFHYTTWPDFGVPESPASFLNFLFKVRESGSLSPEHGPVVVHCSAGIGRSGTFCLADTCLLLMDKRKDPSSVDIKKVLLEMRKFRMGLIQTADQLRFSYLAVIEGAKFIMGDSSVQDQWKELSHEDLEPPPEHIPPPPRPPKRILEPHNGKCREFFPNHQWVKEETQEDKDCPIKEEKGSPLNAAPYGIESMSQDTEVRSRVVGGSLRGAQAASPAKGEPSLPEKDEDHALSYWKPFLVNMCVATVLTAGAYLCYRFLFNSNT
Nature of the assay: Inhibition of tri-phosphorylated insulin receptor dodecaphosphopeptide dephosphorylation by hPTP1B (malachite green). The conditions noted are these: for inhibition at 2.5 µM: read-out: change of PTP1B activity (percent of phosphatase control); for IC50: recombinant PTP1B, dodecaphosphopeptide substrate. The format is biochemical.

A further assay concerns diabetic (ob/ob) mice. Nature of the assay: Blood glucose lowering in diabetic (ob/ob) mice. The class given is in vivo. The conditions noted are these: Mus musculus, po, cells marked a = no significant activity (p<0.05) at this dose.
The mark [2] stands for this setting: read-out: % Change Insulin from Vehicle.
Setting [3] is: plasma glucose, read-out: % Change Glucose from Vehicle.

This note sets out measurements from EP1077967B1, “BIPHENYL OXO-ACETIC ACIDS USEFUL IN THE TREATMENT OF INSULIN RESISTANCE AND HYPERGLYCEMIA” (Wyeth, priority 1998, dated 1999).

Where a name gives a salt, the structure may show the parent alone. Read-outs that look alike come from different tables or passages of the source.

Turning to `O=C(O)COc1ccc(-c2ccc(-c3coc4ccccc34)cc2)cc1` [Example 4, (4'-Benzofuran-3-yl-biphenyl-4-yloxy)-acetic acid], the “% Change from Control” value in assay [1] is listed as -11%. On Human recombinant PTP1B (compound at 2.5 uM), the “change of PTP1B activity (percent of phosphatase control)” value is listed as -51 (2.5 uM). On to `O=C(O)C(Cc1ccccc1)Oc1ccc(-c2ccc(-c3coc4ccccc34)cc2)cc1` (stereo not shown) [Example 5, 2-(4'-Benzofuran-3-yl-biphenyl-4-yloxy)-3-phenyl-propionic acid], for which, in assay [1], the “% Change from Control” value is reported as -70%. Also, at Human recombinant PTP1B (compound at 2.5 uM), the “change of PTP1B activity (percent of phosphatase control)” value is -47 (2.5 uM). For the molecule `O=C(O)COc1ccc(-c2ccc(-c3c(Br)oc4ccccc34)cc2)cc1` [Example 6, [4'-(2-Bromo-benzofuran-3-yl)-biphenyl-4-yloxy]-acetic acid], the “% Change from Control” value in assay [1] was -71%. Further, at Human recombinant PTP1B (compound at 2.5 uM), the inhibition at 2.5 µM came to 15%.

On to `O=C(O)C(Cc1ccccc1)Oc1ccc(-c2ccc(-c3c(Br)oc4ccccc34)cc2)cc1` (stereo not shown) [Example 7, 2-[4'-(2-Bromo-benzofuran-3-yl)-biphenyl-4-yloxy]-3-phenyl-propionic acid], for which the “% Change from Control” value in assay [1] is on record as -73%. Besides, the inhibition at 2.5 µM at Human recombinant PTP1B (compound at 2.5 uM) was 58%. As for `CCCCc1oc2ccccc2c1-c1ccc(-c2ccc(O)cc2)cc1` [Example 8, 4'-(2-Butyl-benzofuran-3-yl)-biphenyl-4-ol], in assay [1], the “% Change from Control” value is -28%. The concentration for half-maximal inhibition (IC50) at Human recombinant PTP1B was 740 nM. `CCCCc1oc2ccccc2c1-c1ccc(-c2ccc(OCC(=O)O)cc2)cc1` [Example 9, [4'-(2-Butyl-benzofuran-3-yl)-biphenyl-4-yloxy]-acetic acid]: in assay [1], the “% Change from Control” value is -75%. Moreover, the IC50 at Human recombinant PTP1B was 2190 nM. `O=C(O)C(Cc1ccccc1)Oc1ccc(-c2ccc(-c3c(Cc4ccccc4)sc4ccccc34)cc2)cc1` (stereo not shown) [Example 13, 2-[4'-(2-Benzyl-benzo[b]thiophen-3-yl)-biphenyl-4-yloxy]-3-phenyl-propionic acid]: the “% Change from Control” value in assay [1] is -50%. Also, the change in vivo at 100 mg/kg with diabetic (ob/ob) mice (setting [2]) was 5%; in the assay on diabetic (ob/ob) mice (setting [3]) it was -36.7%. In the case of `O=C(c1ccccc1)c1oc2ccccc2c1-c1ccc(-c2ccc(OC(Cc3ccccc3)C(=O)O)cc2)cc1` (stereo not shown) [Example 14], the “% Change from Control” value in assay [1] is recorded as -55%. Further, in the assay on diabetic (ob/ob) mice (setting [3]), the change in vivo at 100 mg/kg is -39%. On to `O=C(O)[C@H](Cc1ccccc1)Oc1ccc(-c2ccc(-c3c(Cc4ccccc4)oc4ccccc34)cc2)cc1` [Example 16, (2S)-2-[4'-(2-Benzyl-benzofuran-3-yl)-biphenyl-4-yloxy]-3-phenyl-propionic acid tromethamine salt], for which, in assay [1], the “% Change from Control” value was -53%. Moreover, the half-maximal inhibitory concentration (IC50) on Human recombinant PTP1B worked out at 397 nM.

Consider `O=C(O)[C@H](Oc1ccc(-c2ccc(-c3c(Cc4ccccc4)oc4ccccc34)cc2)cc1)c1ccccc1` [Example 18, (2R)-2-[4'-(2-Benzyl-benzofuran-3-yl)-biphenyl-4-yloxy]-phenyl-acetic acid], for which the IC50 amounted to 24200 nM in assay [1] and 401 nM on Human recombinant PTP1B. With `COc1ccc(Cc2sc3ccccc3c2-c2ccc(-c3ccc(O[C@H](Cc4ccccc4)C(=O)O)cc3)cc2)cc1` [Example 20], the IC50 in assay [1] is 41600 nM.

On to `CCCCc1sc2ccccc2c1-c1ccc(-c2ccc(OC(C(=O)O)c3ccccc3)cc2)cc1` (stereo not shown) [Example 21, [4'-(2-Butyl-benzo[b]thiophene-3-yl)-biphenyl-4-yloxy]-phenyl-acetic acid], for which the IC50 in assay [1] was 35500 nM; on Human recombinant PTP1B, 118 nM. For `O=C(O)[C@@H](Cc1ccccc1)Oc1ccc(-c2ccc(-c3c(C(O)c4ccccc4)oc4ccccc34)cc2)cc1` (stereo partly drawn) [Example 22, (2R)-2-{4'-[2-(Hydroxy-phenyl-methyl)-benzofuran-3-yl)-biphenyl-4-yloxy]-3-phenyl-propionic acid], the “% Change from Control” value in assay [1] is recorded as -55%. Further, at Human recombinant PTP1B, the IC50 was determined as 118 nM. In the case of `CC(Cc1ccccc1)(Oc1ccc(-c2ccc(-c3c(Cc4ccccc4)oc4ccccc34)cc2)cc1)C(=O)O` (stereo not shown) [Example 24, 2-[4'-(2-Benzyl-benzofuran-3-yl)-biphenyl-4-yloxy]-2-methyl-3-phenyl-propionic acid], the change in vivo at 25 mg/kg with diabetic (ob/ob) mice (setting [3]) was -30.5%. For the same molecule, on Human recombinant PTP1B, the IC50 was 293 nM. Turning to `COc1ccc(Cc2sc3ccccc3c2-c2ccc(-c3ccc(O[C@H](Cc4ccccc4)C(=O)O)cc3)cc2)cc1OC` [Example 25, (2R)-2-{4'-[2-(3,4-Dimethoxy-benzyl)-benzo[b]thiophen-3-yl]-biphenyl-4-yloxy}-3-phenyl-propionic acid], the half-inhibitory concentration (IC50) worked out at 17900 nM in assay [1] and 213 nM at Human recombinant PTP1B. In the same order, the values of `COc1ccc(Cc2sc3ccccc3c2-c2ccc(-c3ccc(O[C@H](Cc4ccccc4)C(=O)O)cc3)cc2)c(OC)c1` [Example 26, (2R)-2-{4'-[2-(2,4-Dimethoxy-benzyl)-benzo[b]thiophen-3-yl]-biphenyl-4-yloxy}-3-phenyl-propionic acid] are 20000 nM and 85 nM. In the same order, the values of `CC1(C)Oc2ccc(Cc3sc4ccccc4c3-c3ccc(-c4ccc(O[C@H](Cc5ccccc5)C(=O)O)cc4)cc3)cc2O1` [Example 27, (2R) 2-{4'-[2-(2,2-Dimethyl-benzo[1,3]dioxol-5-ylmethyl)-benzo[b]thiophene-3-yl)-biphenyl-4-yloxy]-3-phenyl-propionic acid] are 24900 nM and 77 nM. As for `O=C(O)[C@@H](Cc1ccccc1)Oc1ccc(-c2ccc(-c3ccsc3Cc3ccccc3)cc2)cc1` [Example 29, (2R)-2-[4'-(2-Benzyl-thiophene-3-yl)-biphenyl-4-yloxy]-3-phenyl-propionic acid], the “% Change from Control” value in assay [1] is given as -19%. In addition, on Human recombinant PTP1B, the 50% inhibitory concentration (IC50) came to 970 nM. In the case of `O=C(O)[C@@H](Cc1ccccc1)Oc1ccc(-c2ccc(-c3c(Cc4ccccc4)sc4ccccc34)cc2)cc1Br` [Example 36, (2R)-2-[4'-(2-Benzyl-benzo[b]thiophene-3-yl)-3-bromo-biphenyl-4-yloxy]-3-phenyl-propionic acid], the half-maximal inhibitory concentration (IC50) turned out to be 17900 nM in assay [1] and 58 nM at Human recombinant PTP1B. Turning to `O=C(O)[C@@H](Cc1ccccc1)Oc1c(Br)cc(-c2ccc(-c3c(Cc4ccccc4)sc4ccccc34)cc2)cc1Br` [Example 37, (2R)-2-[4'-(2-Benzyl-benzo[b]thiophene-3-yl)-3,5-dibromo-biphenyl-4-yloxy]-3-phenyl-propionic acid], the results for the IC50 (in assay [1]; at Human recombinant PTP1B) were 36800 nM and 25 nM, respectively. Taken in the same sequence, the figures for `COc1ccc(-c2cc(-c3ccc(-c4c(Cc5ccccc5)sc5ccccc45)cc3)ccc2O[C@H](Cc2ccccc2)C(=O)O)cc1` [Example 38, (2R)-2-[4-(2-Benzyl-benzo[b]thiophene-3-yl)-4"-methoxy-[1,1';3',1"]terphenyl-4'-yloxy]-3-phenvl-propionic acid] were 19300 nM and 53 nM. As to `O=C(O)CCCOc1ccc(-c2ccc(-c3c(Cc4ccccc4)sc4ccccc34)cc2)cc1Br` [Example 42], the change in vivo at 25 mg/kg was 9.9% with diabetic (ob/ob) mice (setting [2]) and -10.6% in the assay with diabetic (ob/ob) mice (setting [3]). Also, the IC50 on Human recombinant PTP1B stood at 178 nM. Taken in the same sequence, the figures for `O=C(O)[C@@H](CCN1C(=O)c2ccccc2C1=O)Oc1ccc(-c2ccc(-c3c(Cc4ccccc4)oc4ccccc34)cc2)cc1` [Example 48, (2R)-2-[4'-(2-benzyl-benzofuran-3-yl)-biphenyl-4-yloxy]-4-(1,3-dioxo-1,3-dihydro-isoindol-2-yl)-butyric acid] were -30%, 4.7% and 341 nM. Taken in the same sequence, the figures for `COc1ccc(-c2cc(-c3ccc(-c4c(Cc5ccccc5)oc5ccccc45)cc3)ccc2O[C@@H](Cc2ccccc2)C(=O)O)cc1` [Example 55, (2S)-2-[4-(2-benzyl-benzofuran-3-yl)-4"-methoxy-[1,1';3',1'']terphenyl-4'-yloxy]-3-phenyl-propionic acid] were 35.4%, -13.6% and 43 nM. In the case of `O=C(O)[C@@H](Cc1ccccc1)Oc1ccc(-c2ccc(-c3nc4cccnc4n3Cc3ccccc3)cc2)cc1` [Example 69, (2R)-2-[4'-(3-Benzyl-3H-imidazol[4,5-b]pyridin-2-yl)-biphenyl-4-yloxy]-3-phenyl-propionic acid sodium salt], the “change of PTP1B activity (percent of phosphatase control)” value at Human recombinant PTP1B (compound at 1 uM) is -20 (1 uM). As to `O=C(O)[C@H](Cc1ccccc1)Oc1ccc(-c2ccc(-c3nc4ccccc4n3Cc3ccccc3)cc2)cc1` [Example 70, (2S)-2-[4'-(1-Benzyl-1H-benzimidazol-2-yl)-biphenyl-4-yloxy]-3-phenyl-propionic acid], the inhibition at 2.5 µM at Human recombinant PTP1B (compound at 2.5 uM) was 41%. The same measure, in the same setting: the result for `CC(=O)c1ccc(-c2ccc(-c3ccc(O[C@@H](Cc4ccccc4)C(=O)O)cc3)cc2)s1` [Example 71, (2S)-2-[4'-(5-acetyl-thiophen-2-yl)-biphenyl-4-yloxy]-3-phenyl-propionic acid sodium salt] reads 43%. Turning to “Ammonium molybdate tetrahydrate [reference compound]”, the 50% inhibitory concentration (IC50) at Human recombinant PTP1B turned out to be 8700 nM.
